This is an account of results in patent publication US9809623B2, “α4β7 peptide monomer and dimer antagonists” (Protagonist Therapeutics, Inc., priority 2014, dated 2017).

One series addresses T1, rh integrin α4β7 (Homo sapiens, UniProt P13612+P26010).
T1 construct: purchased R&D Systems 5397-A30
Briefly: α4β7-MAdCAM Competition ELISA. The series is classed as binding. As to conditions: Table 3-B, Potency (α4β7); range classes; read-out: α4β7 ELISA IC50. The procedure, abridged:
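Competition read-out was A450 after anti-human IgG1-HRP and TMB detection of bound recombinant human MAdCAM-1 (10 nM final). Peptides were serially diluted 3-fold from a final 10 μM and equilibrated 1 h at room temperature on nickel-captured α4β7 (800 ng/well). The buffer was Tris pH 7.6 with 1 mM Mn2+ or Mg2+.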

The target of another series is T2, α4β1 (Homo sapiens, UniProt P05556+P13612, DEL729-798).
T2 construct: purchased R&D Systems 5668-A4
T2 sequence (P13612 34-977 limits assumed, stated change not applied): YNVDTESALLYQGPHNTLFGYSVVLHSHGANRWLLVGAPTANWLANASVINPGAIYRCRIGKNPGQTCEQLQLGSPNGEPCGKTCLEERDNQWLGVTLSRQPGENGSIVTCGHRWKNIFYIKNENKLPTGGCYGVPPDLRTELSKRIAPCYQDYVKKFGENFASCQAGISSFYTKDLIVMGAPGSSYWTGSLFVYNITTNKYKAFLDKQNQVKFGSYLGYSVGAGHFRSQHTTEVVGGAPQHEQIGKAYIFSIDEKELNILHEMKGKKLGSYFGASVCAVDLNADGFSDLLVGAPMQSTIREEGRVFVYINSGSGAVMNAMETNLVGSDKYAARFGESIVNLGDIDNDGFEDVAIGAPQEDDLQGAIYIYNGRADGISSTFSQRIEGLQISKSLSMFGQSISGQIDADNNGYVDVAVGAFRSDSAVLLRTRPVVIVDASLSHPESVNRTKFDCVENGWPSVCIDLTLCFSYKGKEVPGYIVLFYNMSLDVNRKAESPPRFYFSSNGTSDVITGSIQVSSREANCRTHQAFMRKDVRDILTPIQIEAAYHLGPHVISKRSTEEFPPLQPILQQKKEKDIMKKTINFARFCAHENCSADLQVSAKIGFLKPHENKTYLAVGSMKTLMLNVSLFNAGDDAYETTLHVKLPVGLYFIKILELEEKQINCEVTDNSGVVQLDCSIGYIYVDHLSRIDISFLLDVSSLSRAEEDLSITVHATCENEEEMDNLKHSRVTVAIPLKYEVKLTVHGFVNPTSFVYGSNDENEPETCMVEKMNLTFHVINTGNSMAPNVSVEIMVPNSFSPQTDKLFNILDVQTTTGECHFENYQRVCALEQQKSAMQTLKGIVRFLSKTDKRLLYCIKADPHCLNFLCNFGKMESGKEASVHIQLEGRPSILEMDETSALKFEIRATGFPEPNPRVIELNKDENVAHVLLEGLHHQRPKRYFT
T2 sequence (P05556 21-728 limits assumed, stated change not applied): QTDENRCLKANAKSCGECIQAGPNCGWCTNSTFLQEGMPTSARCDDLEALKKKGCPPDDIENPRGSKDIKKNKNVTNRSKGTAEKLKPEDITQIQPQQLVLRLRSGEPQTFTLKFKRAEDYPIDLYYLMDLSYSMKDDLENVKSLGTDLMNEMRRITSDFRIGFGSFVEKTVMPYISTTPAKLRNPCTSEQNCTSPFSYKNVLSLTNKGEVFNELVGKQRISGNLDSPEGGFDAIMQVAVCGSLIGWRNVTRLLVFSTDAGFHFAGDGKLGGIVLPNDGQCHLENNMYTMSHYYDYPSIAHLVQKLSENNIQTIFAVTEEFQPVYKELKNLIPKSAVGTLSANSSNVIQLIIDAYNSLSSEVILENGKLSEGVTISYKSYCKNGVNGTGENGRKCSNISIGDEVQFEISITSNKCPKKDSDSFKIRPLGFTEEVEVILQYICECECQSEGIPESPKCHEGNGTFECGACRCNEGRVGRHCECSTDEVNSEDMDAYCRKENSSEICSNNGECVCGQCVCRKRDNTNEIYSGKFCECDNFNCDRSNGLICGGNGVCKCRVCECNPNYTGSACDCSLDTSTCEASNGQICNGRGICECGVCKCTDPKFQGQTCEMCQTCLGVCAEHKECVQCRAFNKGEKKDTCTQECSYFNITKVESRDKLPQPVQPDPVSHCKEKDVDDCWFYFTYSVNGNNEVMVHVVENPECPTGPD
Briefly: α4β1-VCAM Competition ELISA. The class given is binding. The following applies: Table 3-B, Selectivity (α4β1); range classes; read-out: α4β1 ELISA IC50. The procedure:
A Nunc MaxiSorp plate was coated with rh VCAM-1/CD106 Fc chimera (R&D #862-VC) at 400 ng/well in 50 ul per well in 1×PBS and incubated overnight at 4° C. The solution was removed by shaking and then blocked with 250 ul of 1% BSA in 1×PBS per well. The wells were then incubated at room temperature for 1 hr with shaking. Each well was then washed once with wash buffer (50 mM Tris-HCl pH7.6, 100 mM NaCL, 1 mM MnCl2 or MgCl2, 0.05% Tween-20). 25 ul of serial dilutions of peptides starting at 200 μM in assay buffer (Assay buffer: 50 mM Tris-HCl pH7.6, 100 mM NaCl, 1 mM MnCl2 or MgCl2, 0.05% Tween-20) was added to each well. Additionally, 25 ul of α4β1 (R&D Systems #5668-A4) was added to each well at a fixed concentration of 120 nM. The final peptide and α4β1 concentrations were 100 μM and 60 nM, respectively. The plates were then incubated at 37° C. for 2 hr. The solution was then removed by shaking, and each well was washed three times with wash buffer. 50 ul of 9F10 antibody at 4 ug/ml (purified mouse anti-human CD49d, BD Bioscience Cat#555502) was then added to each well, and the plate was incubated at room temperature for 1 hr with shaking. The solution was again removed by shaking, and each well was washed three times with wash buffer. 50 ul of peroxidase-conjugated AffiniPure Goat anti-mouse IgG (Jackson immune research cat #115-035-003) diluted in 1:5000 in assay buffer was added to each well. The plate was incubated at room temperature for 30 min with shaking. Each well was then washed 3 times with wash buffer. 100 ul of TMB was then added to each well and closely observe during developing time. The reaction was stepped with 2N H2SO4 and absorbance was read at 450 nm.
A general note: An ELISA detects its analyte on a solid surface through an enzyme-linked reagent.

Series [1] in a line: Simulated Intestinal Fluid (SIF) Stability Assay. The class given is in vitro ADME, porcine. As to conditions: pig, pH 6.5, Table 3-B, > means experiment was stopped at that time and half life was not reached, read-out: Stabilty SIF t1/2. The procedure, abridged:
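Intestinal stability: percent peptide remaining over time, by LC-MS/MS peak-area ratio to internal standard, fitted to first-order decay for half-life. Conditions: 22 μM peptide, 1% pancreatin in pH 6.5 blank FASSIF, 37 °C.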

The next series concerns the target α4β7 (Homo sapiens, UniProt P13612+P26010). Briefly: α4β7-MAdCAM Cell Adhesion Assay (RPMI 8866 human cells). The class given is cell-based. The arrangement: host or cells: RPMI 8866 human B lymphoblastoid cells. The following applies: Table 3-B, Potency (α4β7); range classes; read-out: α4β7 cell (Hu) IC50. The procedure, abridged: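 Adhesion read-out: MTT absorbance at 570 nm minus no-cell wells, after three washes. Plates coated with rh MAdCAM-1/Fc received peptide dilutions plus 200,000 RPMI 8866 cells in Mn2+ (1 mM)-supplemented DMEM, 0.1% BSA, HEPES pH 7, incubated 30-45 min, 37 °C.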

Where [2] appears, read: simulated intestinal fluid (SIF) with 1% porcine pancreatin.

Like-named read-outs stand apart in the source and are kept apart here. Numbered stars: 1 amine (or outer) side, 2 acyl side, 3 side chain; on linkers, the order of the positions; unused ones are H or OH. Bridge positions count the residues as written; N and C are the ends. Square brackets hold non-standard residues; d marks the D form. Peptide text beside a SMILES is read from it. I, II: the chains in the order shown. X3 = O=C(COCC(=O)NCCC(=O)[*:2])NCCC(=O)[*:1]; Bip = N[C@@H](Cc1ccc(-c2ccccc2)cc1)C(=O)O; 1Nal = N[C@@H](Cc1cccc2ccccc12)C(=O)O; 2Nal = N[C@@H](Cc1ccc2ccccc2c1)C(=O)O; Diglycolyl = O=C(COCC(=O)[*:2])[*:1]; NMeR = CN[C@@H](CCCNC(=N)N)C(=O)O; β3hE = N[C@@H](CCC(=O)O)CC(=O)O; NMeK = CN[C@@H](CCCCN)C(=O)O; Pen = CC(C)(S)[C@H](N)C(=O)O; dNMeK = CN[C@H](CCCCN)C(=O)O

T1 sequence (P13612 34-977 limits assumed): as the sequence (P13612 34-977 limits assumed, stated change not applied) above
T1 sequence (P26010 20-723 limits assumed): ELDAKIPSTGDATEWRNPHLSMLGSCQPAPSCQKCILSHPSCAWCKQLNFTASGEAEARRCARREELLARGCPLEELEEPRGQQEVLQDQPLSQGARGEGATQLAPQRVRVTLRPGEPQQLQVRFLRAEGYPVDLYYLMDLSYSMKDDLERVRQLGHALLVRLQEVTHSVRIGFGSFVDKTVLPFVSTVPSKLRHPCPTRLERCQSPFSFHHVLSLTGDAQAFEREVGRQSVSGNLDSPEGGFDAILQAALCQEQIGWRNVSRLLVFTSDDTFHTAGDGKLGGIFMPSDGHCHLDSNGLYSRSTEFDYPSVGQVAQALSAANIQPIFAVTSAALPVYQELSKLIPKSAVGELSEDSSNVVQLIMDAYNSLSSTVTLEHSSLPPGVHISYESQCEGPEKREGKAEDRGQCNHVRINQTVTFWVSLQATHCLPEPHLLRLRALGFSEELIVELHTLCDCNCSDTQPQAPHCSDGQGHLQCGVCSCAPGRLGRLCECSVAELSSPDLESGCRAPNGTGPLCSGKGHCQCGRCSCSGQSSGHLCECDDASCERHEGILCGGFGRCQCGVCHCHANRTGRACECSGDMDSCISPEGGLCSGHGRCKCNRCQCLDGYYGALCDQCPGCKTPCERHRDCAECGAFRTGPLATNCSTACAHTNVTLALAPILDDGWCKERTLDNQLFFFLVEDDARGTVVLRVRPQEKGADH
Chain of α4β7 (P13612 34-1032): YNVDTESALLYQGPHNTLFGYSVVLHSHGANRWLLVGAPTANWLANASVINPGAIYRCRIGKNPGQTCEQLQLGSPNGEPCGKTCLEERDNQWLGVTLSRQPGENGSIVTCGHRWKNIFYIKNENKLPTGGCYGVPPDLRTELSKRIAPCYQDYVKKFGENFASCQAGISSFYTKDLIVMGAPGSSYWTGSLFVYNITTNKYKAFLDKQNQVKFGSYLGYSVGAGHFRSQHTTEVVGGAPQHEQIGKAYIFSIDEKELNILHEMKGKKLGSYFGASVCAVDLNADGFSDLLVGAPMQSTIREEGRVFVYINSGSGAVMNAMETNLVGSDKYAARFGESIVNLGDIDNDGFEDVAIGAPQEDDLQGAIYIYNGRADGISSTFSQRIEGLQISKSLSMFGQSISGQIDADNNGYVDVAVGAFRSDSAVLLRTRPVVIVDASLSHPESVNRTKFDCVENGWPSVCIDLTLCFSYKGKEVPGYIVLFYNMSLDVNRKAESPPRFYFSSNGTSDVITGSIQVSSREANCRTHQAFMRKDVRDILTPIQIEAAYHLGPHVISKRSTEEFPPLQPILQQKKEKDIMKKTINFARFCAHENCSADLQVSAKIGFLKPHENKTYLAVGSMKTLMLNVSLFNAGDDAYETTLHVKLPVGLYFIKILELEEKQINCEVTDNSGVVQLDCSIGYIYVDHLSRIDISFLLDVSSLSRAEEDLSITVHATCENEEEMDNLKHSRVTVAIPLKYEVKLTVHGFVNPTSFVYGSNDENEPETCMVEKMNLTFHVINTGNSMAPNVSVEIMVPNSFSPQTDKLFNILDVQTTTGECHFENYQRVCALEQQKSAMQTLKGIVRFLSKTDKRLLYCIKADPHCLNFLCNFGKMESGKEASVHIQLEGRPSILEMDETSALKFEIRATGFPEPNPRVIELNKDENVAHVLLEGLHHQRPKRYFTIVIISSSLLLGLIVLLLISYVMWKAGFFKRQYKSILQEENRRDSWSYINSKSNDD
Chain of α4β7 (P26010 20-798): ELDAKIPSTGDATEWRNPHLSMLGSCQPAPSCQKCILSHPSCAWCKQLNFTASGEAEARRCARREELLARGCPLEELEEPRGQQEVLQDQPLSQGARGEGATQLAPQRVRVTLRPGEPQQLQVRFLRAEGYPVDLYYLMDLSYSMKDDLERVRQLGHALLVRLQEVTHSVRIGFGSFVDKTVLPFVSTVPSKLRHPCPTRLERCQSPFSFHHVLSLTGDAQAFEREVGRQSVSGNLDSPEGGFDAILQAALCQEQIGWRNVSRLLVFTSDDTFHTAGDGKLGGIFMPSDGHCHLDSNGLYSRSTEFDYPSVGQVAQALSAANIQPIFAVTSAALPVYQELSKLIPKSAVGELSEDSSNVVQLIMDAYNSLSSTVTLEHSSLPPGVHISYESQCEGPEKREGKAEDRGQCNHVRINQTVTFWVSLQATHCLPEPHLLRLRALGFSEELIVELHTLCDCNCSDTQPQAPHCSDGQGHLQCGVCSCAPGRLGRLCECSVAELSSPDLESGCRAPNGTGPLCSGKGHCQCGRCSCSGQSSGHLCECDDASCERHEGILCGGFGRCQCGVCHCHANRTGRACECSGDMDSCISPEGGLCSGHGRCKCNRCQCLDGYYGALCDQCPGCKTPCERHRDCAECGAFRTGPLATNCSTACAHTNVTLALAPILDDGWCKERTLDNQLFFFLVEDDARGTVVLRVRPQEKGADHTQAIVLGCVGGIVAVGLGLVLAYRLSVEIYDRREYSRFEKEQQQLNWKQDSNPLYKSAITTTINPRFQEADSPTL

Broadly, the IC50 is the concentration that inhibits the measured activity by half. With `CC(=O)N[C@@H]1C(=O)N(C)[C@@H](CCCNC(=N)N)C(=O)N[C@@H](CO)C(=O)N[C@@H](CC(=O)O)C(=O)N[C@@H]([C@@H](C)O)C(=O)N[C@@H](CC(C)C)C(=O)N[C@H](C(=O)N[C@@H](Cc2cccc3ccccc23)C(=O)N[C@@H](CCC(=O)O)C(=O)N(C)[C@H](CCCCN)C(N)=O)C(C)(C)SSC1(C)C` [compound 18] (Ac-[Pen][NMeR]SDTL[Pen][1Nal]E[dNMeK]-NH2; disulfide 1-7), the IC50 at rh integrin α4β7 is 0.01 to 0.025 µM; at α4β1, 0.5 to 1 µM.

`CC(=O)N[C@@H]1C(=O)N(C)[C@@H](CCCNC(=N)N)C(=O)N[C@@H](CO)C(=O)N[C@@H](CC(=O)O)C(=O)N[C@@H]([C@@H](C)O)C(=O)N[C@@H](CC(C)C)C(=O)N[C@H](C(=O)N[C@@H](Cc2ccc(O)cc2)C(=O)N[C@@H](CCC(=O)O)C(=O)N[C@H](CCCCNC(=O)COCC(=O)NCCCC[C@@H](NC(=O)[C@H](CCC(=O)O)NC(=O)[C@H](Cc2ccc(O)cc2)NC(=O)[C@H]2NC(=O)[C@H](CC(C)C)NC(=O)[C@H]([C@@H](C)O)NC(=O)[C@H](CC(=O)O)NC(=O)[C@H](CO)NC(=O)[C@H](CCCNC(=N)N)N(C)C(=O)[C@@H](NC(C)=O)C(C)(C)SSC2(C)C)C(N)=O)C(N)=O)C(C)(C)SSC1(C)C` [compound 22] (I: Ac-[Pen][NMeR]SDTL[Pen]YE[dK]-NH2 / II: Ac-[Pen][NMeR]SDTL[Pen]YE[dK]-NH2; disulfide I:1-I:7, II:1-II:7; linker I:10-II:10 via Diglycolyl): in series [1] (setting [2]), the half-life at 22 μM was < 20 min. Also, the half-inhibitory concentration (IC50) on rh integrin α4β7 was < 0.01 µM; at α4β1, 0.1 to 0.5 µM; on α4β7, < 0.01 µM.

`CC(=O)N[C@@H]1C(=O)N(C)[C@@H](CCCNC(=N)N)C(=O)N[C@@H](CO)C(=O)N[C@@H](CC(=O)O)C(=O)N[C@@H]([C@@H](C)O)C(=O)N[C@@H](CC(C)C)C(=O)N[C@H](C(=O)N[C@@H](Cc2ccc3ccccc3c2)C(=O)N[C@@H](Cc2ccc(O)cc2)C(=O)N[C@H](CCCCNC(=O)COCC(=O)NCCCC[C@@H](NC(=O)[C@H](Cc2ccc(O)cc2)NC(=O)[C@H](Cc2ccc3ccccc3c2)NC(=O)[C@H]2NC(=O)[C@H](CC(C)C)NC(=O)[C@H]([C@@H](C)O)NC(=O)[C@H](CC(=O)O)NC(=O)[C@H](CO)NC(=O)[C@H](CCCNC(=N)N)N(C)C(=O)[C@@H](NC(C)=O)C(C)(C)SSC2(C)C)C(N)=O)C(N)=O)C(C)(C)SSC1(C)C` [compound 23] (I: Ac-[Pen][NMeR]SDTL[Pen][2Nal]Y[dK]-NH2 / II: Ac-[Pen][NMeR]SDTL[Pen][2Nal]Y[dK]-NH2; disulfide I:1-I:7, II:1-II:7; linker I:10-II:10 via Diglycolyl): in series [1] (setting [2]), the half-life at 22 μM was < 20 min. Also, the IC50 at α4β1 is 0.1 to 0.5 µM; at α4β7, < 0.01 µM.

For the molecule `CC(C)C[C@@H]1NC(=O)[C@H]([C@@H](C)O)NC(=O)[C@H](CC(=O)O)NC(=O)[C@H](CO)NC(=O)[C@H](CCCNC(=N)N)N(C)C(=O)[C@@H](NC(=O)CCNC(=O)COCC(=O)NCCC(=O)N[C@@H]2C(=O)N(C)[C@@H](CCCNC(=N)N)C(=O)N[C@@H](CO)C(=O)N[C@@H](CC(=O)O)C(=O)N[C@@H]([C@@H](C)O)C(=O)N[C@@H](CC(C)C)C(=O)N[C@H](C(=O)N[C@@H](Cc3c[nH]c4ccccc34)C(=O)N[C@@H](CCC(=O)O)C(N)=O)C(C)(C)SSC2(C)C)C(C)(C)SSC(C)(C)[C@@H](C(=O)N[C@@H](Cc2c[nH]c3ccccc23)C(=O)N[C@@H](CCC(=O)O)C(N)=O)NC1=O` [compound 54] (I: [Pen][NMeR]SDTL[Pen]WE-NH2 / II: [Pen][NMeR]SDTL[Pen]WE-NH2; disulfide I:1-I:7, II:1-II:7; linker I:N-II:N via X3), in series [1] (simulated intestinal fluid (SIF) with porcine pancreatin), the half-life at 22 μM is 32 min. Besides, the IC50 on α4β1 lay within 0.1 to 0.5 µM; on α4β7 it was 0.025 to 0.05 µM.

Regarding `CC(=O)N[C@@H]1C(=O)N(C)[C@@H](CCCNC(=N)N)C(=O)N[C@@H](CO)C(=O)N[C@@H](CC(=O)O)C(=O)N[C@@H]([C@@H](C)O)C(=O)N[C@@H](CC(C)C)C(=O)N[C@H](C(=O)N[C@@H](Cc2ccc(-c3ccccc3)cc2)C(=O)N[C@@H](CCC(=O)O)C(=O)N[C@H](CCCCNC(=O)COCC(=O)NCCCC[C@@H](NC(=O)[C@H](CCC(=O)O)NC(=O)[C@H](Cc2ccc(-c3ccccc3)cc2)NC(=O)[C@H]2NC(=O)[C@H](CC(C)C)NC(=O)[C@H]([C@@H](C)O)NC(=O)[C@H](CC(=O)O)NC(=O)[C@H](CO)NC(=O)[C@H](CCCNC(=N)N)N(C)C(=O)[C@@H](NC(C)=O)C(C)(C)SSC2(C)C)C(N)=O)C(N)=O)C(C)(C)SSC1(C)C` [compound 134] (I: Ac-[Pen][NMeR]SDTL[Pen][Bip]E[dK]-NH2 / II: Ac-[Pen][NMeR]SDTL[Pen][Bip]E[dK]-NH2; disulfide I:1-I:7, II:1-II:7; linker I:10-II:10 via Diglycolyl), the IC50 on rh integrin α4β7 was < 0.01 µM; at α4β1 it was 0.1 to 0.5 µM; on α4β7 it was < 0.01 µM.

With `CC(=O)N[C@@H]1C(=O)N(C)[C@@H](CCCNC(=N)N)C(=O)N[C@@H](CO)C(=O)N[C@@H](CC(=O)O)C(=O)N[C@@H]([C@@H](C)O)C(=O)N[C@@H](CC(C)C)C(=O)N[C@H](C(=O)N[C@@H](Cc2ccc3ccccc3c2)C(=O)N[C@@H](CCC(=O)O)CC(=O)N[C@H](CCCCNC(=O)COCC(=O)NCCCC[C@@H](NC(=O)C[C@H](CCC(=O)O)NC(=O)[C@H](Cc2ccc3ccccc3c2)NC(=O)[C@H]2NC(=O)[C@H](CC(C)C)NC(=O)[C@H]([C@@H](C)O)NC(=O)[C@H](CC(=O)O)NC(=O)[C@H](CO)NC(=O)[C@H](CCCNC(=N)N)N(C)C(=O)[C@@H](NC(C)=O)C(C)(C)SSC2(C)C)C(N)=O)C(N)=O)C(C)(C)SSC1(C)C` [compound 137] (I: Ac-[Pen][NMeR]SDTL[Pen][2Nal][β3hE][dK]-NH2 / II: Ac-[Pen][NMeR]SDTL[Pen][2Nal][β3hE][dK]-NH2; disulfide I:1-I:7, II:1-II:7; linker I:10-II:10 via Diglycolyl), the figures for the IC50 on rh integrin α4β7, on α4β1 and on α4β7 were < 0.01 µM, 1 to 10 µM and < 0.01 µM, respectively.

Turning to `CC(=O)N[C@@H]1C(=O)N(C)[C@@H](CCCNC(=N)N)C(=O)N[C@@H](CO)C(=O)N[C@@H](CC(=O)O)C(=O)N[C@@H]([C@@H](C)O)C(=O)N[C@@H](CC(C)C)C(=O)N[C@H](C(=O)N[C@@H](Cc2c[nH]c3ccccc23)C(=O)N[C@@H](CCC(=O)O)CC(=O)N(C)[C@@H](CCCCNC(=O)COCC(=O)NCCCC[C@@H](C(N)=O)N(C)C(=O)C[C@H](CCC(=O)O)NC(=O)[C@H](Cc2c[nH]c3ccccc23)NC(=O)[C@H]2NC(=O)[C@H](CC(C)C)NC(=O)[C@H]([C@@H](C)O)NC(=O)[C@H](CC(=O)O)NC(=O)[C@H](CO)NC(=O)[C@H](CCCNC(=N)N)N(C)C(=O)[C@@H](NC(C)=O)C(C)(C)SSC2(C)C)C(N)=O)C(C)(C)SSC1(C)C` [compound 141] (I: Ac-[Pen][NMeR]SDTL[Pen]W[β3hE][NMeK]-NH2 / II: Ac-[Pen][NMeR]SDTL[Pen]W[β3hE][NMeK]-NH2; disulfide I:1-I:7, II:1-II:7; linker I:10-II:10 via Diglycolyl), the half-inhibitory concentration (IC50) on rh integrin α4β7 was < 0.01 µM; at α4β1 it was 0.5 to 1 µM; at α4β7, < 0.01 µM.
